Consider 15 compounds from PubChem BioAssay (NCI).

Several values for one entry are separate records, joined by “and”; a condition that tells them apart may be missing. Equal values may be shown once.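 Exposure lasted 48 hours, with cells grown in 96-well plates and compounds tested at five concentrations. GI50 marks 50% less growth. At the TGI there is no net growth.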

Test in all cases: inhibition of tumour cell growth, NCI panel, 48 h
Test [1] concerns SK-OV-3 ovarian.
Test [2] has as its system MOLT-4 leukemia.
For test [3], the system named is A549 NSCLC.
Test [4] relates to UO-31 renal.
Test [5] deals with OVCAR-5 ovarian.
Test [6] deals with TK-10 renal.
Test [7] has as its system HT29 colon.
Test [8] has as its system HL-60(TB) leukemia.
In test [9] the test system is SR leukemia.

In the case of `CCCNCCCC(NC(C)=O)C(=O)NCc1ccccc1` (centres undefined), the TGI in test [1], in test [2], in test [3], in [4], in test [5] and in test [6] was greater than 100 µM each time. Moreover, the TGI in test [7] was greater than 100 µM.

`COc1ccccc1/C=C1\CCC(CCN(C)C)(C2=CCCC2)C1=O` (centres undefined): the TGI in test [2] amounted to 54.3 µM; in test [3] it was 64.4 µM; in test [8], 45.5 µM; in [4] it was 31.4 µM; in test [5] it was 82.5 µM; in [6] it was 37.5 µM. Besides, the TGI in [9] was determined as 52.3 µM; in test [7], 39.3 µM.

Consider `O=C(/C(=C\C(=O)c1cccs1)c1ccsc1)c1ccc(Br)cc1`, for which the TGI in [1], in test [2], in test [3], in [8], in test [4] and in test [6] was greater than 100 µM each time. Further, the TGI in test [9] and in test [7] was greater than 100 µM in each case.

Turning to `C=CC1[C@H]2COC(C)(C)O[C@@H]2CC(=O)C1(C)C` (some centres undefined), the TGI in test [3], in test [8], in test [4], in test [5], in [6] and in [7] was greater than 100 µM in each case.

As for `COC[C@@H](N=CN1CCc2cc(OC)c(OC)cc2[C@@H]1C)C(C)(C)C`, the TGI in test [1], in test [2], in [3], in test [8], in test [4] and in [6] was greater than 100 µM throughout. Also, the TGI in test [9] and in test [7] was greater than 100 µM each time.

`CCOC(=O)/C(O)=C/c1cc(OC)cc(=O)o1`: the TGI in [1], in test [2], in test [3], in [8], in [4] and in test [5] was greater than 100 µM throughout. The TGI in [6] and in [7] was greater than 100 µM in each case.

For the compound `Cn1nc(-c2ccccc2)c(C(=O)/C=C/c2ccc(F)cc2)c(N2CCCCC2)c1=O`, the TGI worked out at 70.1 µM in test [1]; 7.09 µM in test [2]; 55.1 µM in [3]; 3.28 µM in test [8]; 19.1 µM in test [4]; 69.9 µM in test [6]. In addition, the TGI in [7] came out at 20.2 µM.

Regarding `CC12N=NN(c3ccc([N+](=O)[O-])cc3)C1(O)c1ccccc1C2=O` (centres undefined), the TGI in test [1], in test [3], in test [8], in test [4], in test [6] and in [9] was greater than 100 µM throughout. In test [7], this compound had a TGI greater than 100 µM.

For the compound `Cc1ccc(-c2cc(-c3ccco3)c(C#N)c(=O)[nH]2)cc1`, the TGI was 97.6 µM in test [1]; greater than 100 µM in [2]; greater than 100 µM in [3]; greater than 100 µM in [8]; greater than 100 µM in test [4]; greater than 100 µM in test [5]. Further, the TGI in test [6] and in [7] was greater than 100 µM in each case.

Regarding `CC[C@@]1(O)C[C@H](OC2CC(N(C)C)C(OC3CC(O)C(OC4CCC(=O)C(C)O4)C(C)O3)C(C)O2)c2c(cc3c(c2O)C(=O)c2c(O)cccc2C3=O)[C@H]1C(=O)OC` (some centres undefined), the TGI in [1] is 1.31 µM and 5.14 µM; in test [8], 0.0613 µM and 0.177 µM; in test [5] it was 0.22 µM and 0.457 µM; in [6] it was 0.932 µM and 0.373 µM; in test [7], 0.903 µM and 0.318 µM. Besides, in test [8], the GI50 is 0.00866 µM and 0.0039 µM.

In the case of `O=C(O)C1C2CCC(O2)C1C(=O)N1CCCCC1` (centres undefined), the TGI in test [1] is 42.9 µM; in test [2], 20.6 µM; in test [3], greater than 100 µM; in test [4], 46 µM; in test [5], 62.8 µM; in [6], 8.42 µM. Moreover, the values for the TGI in test [9] and in [7] were 14.2 µM and 15.1 µM, respectively.

Regarding `CN(C)c1ccc([O-])cc1.CN(C)c1ccc([O-])cc1.CN(C)c1ccc([O-])cc1.CN(C)c1ccc([O-])cc1.[Ti+4]`, the GI50 in test [1] was greater than 100 µM; in [2], 38.1 µM; in [3], 51.9 µM; in test [8], 27.5 µM; in test [4], greater than 100 µM; in test [5], greater than 100 µM. The GI50 in [6] and in [7] was greater than 100 µM throughout. Also, the TGI in test [1], in test [2], in test [3], in [8], in test [4] and in test [5] was greater than 100 µM in each case. In addition, the TGI in [6] and in test [7] was greater than 100 µM in each case.

As for `CC(=O)Nc1ccc(C(=O)NN2C(=O)C(Cl)C2c2ccc([N+](=O)[O-])cc2)cc1` (centres undefined), the TGI in test [1], in test [2], in test [3], in [8], in test [4] and in test [5] was greater than 100 µM throughout. The TGI in test [6] and in test [7] was greater than 100 µM each time.

Regarding `O=C(Nc1cccc([N+](=O)[O-])c1)C(=O)C(C(=O)c1ccccc1-c1ccccc1)C1OC(=O)c2ccccc21` (centres undefined), the TGI in [1] was greater than 100 µM; in test [2], 52.4 µM; in [3], 82.7 µM; in [8], 56.5 µM; in [4], 51.8 µM; in test [5], 39.5 µM. For the same compound, the TGI in [6] was 61.5 µM; in [7], greater than 100 µM.

Consider `O=C([CH-]C(=O)c1ccccc1)c1ccccc1.O=C([CH-]C(=O)c1ccccc1)c1ccccc1.O=C([CH-]C(=O)c1ccccc1)c1ccccc1.[Nd+3].[OH3+]`, for which the GI50 in [1] is 5.58 µM; in test [2], 2.24 µM; in [3], 8.41 µM; in test [8] it was 1.5 µM; in test [4] it was 2.85 µM; in [5] it was 39.5 µM. Also, the GI50 in [6] is 8.51 µM; in [7], 4.64 µM. In addition, the TGI in test [1] was 29.3 µM; in test [2], 12.5 µM; in test [3], 31.8 µM; in test [8] it was 4.99 µM; in test [4], 8.19 µM; in [5], greater than 100 µM. The figures for the TGI in test [6] and in test [7] were 74.7 µM and 16.1 µM, respectively.
